Data as given in paper PMC12313019, “Fibrotic lung ECM upregulates SDC4/integrin-αvβ1 interaction and the interfering peptide SDC4_87-131 and its derivative peptides alleviate pulmonary fibrosis” (Regenerative Biomaterials, 2025).
Entries after “also recorded” stand apart in the source; their conditions may differ.

Key:
BLM lung injury, mice = assay: BLM lung injury, subacute stage, HE staining; assay type: in vivo, mouse; settings: 300 μg/kg, i.h., qd from 24 h after BLM, to day 15
Protocol: (§1) After the mice were anesthetized (1% sodium pentobarbital 50 mg/kg was injected intraperitoneally), 150 μL of bleomycin (BLM, 5 mg/mL, BIO-000001) was inhaled into the lungs of the mice by tracheal inhalation instillation. One day later, the mice were randomly divided into model and drug treatment groups, and the mice in the control group were only subjected to saline inhalation.
(A) Flow chart of animal experiments. SDC487-131 (300 μg/kg, i.h., qd) was administered starting 24 h after BLM modeling, and the experiment ended on the 15th day; (B) The pathological changes at the subacute stage of BLM lung injury were observed by HE staining (scale bar = 1000 μm, 50μm). […] To achieve better results, we used intratracheal instillation of SDC487-131 (1mg/kg, q3d).

[1] = system: integrin-αvβ1, FAK/AKT and PKCα/NF-κB pathways in NIH3T3 cells; assay: Western blot of signaling proteins in dECM-stimulated fibroblast; assay type: cell-based, mouse; settings: n=3
Protocol: (§2) Decellularized lung ECM (dECM) was prepared as described in previous study. 2 × 10^5 cells/mL NIH3T3 cells (mouse […], purchased from the Stem Cell Bank of the Chinese Academy of Sciences, Shanghai, China) were seeded on the dECM slices attached to the bottom of the culture dish and cultured in DMEM medium containing 0.5% fetal bovine serum (Gibco, Waltham, MA, USA) at 37°C and 5% CO2.
(§3) 20 mg of lung tissue was extracted with RIPA lysis buffer (Roche International Ltd., Bermuda, USA), and the protein concentration was determined using a BCA protein detection kit (Roche). Protein samples were separated by 10% sodium dodecyl sulfate polyacrylamide gel (SDS-PAGE) electrophoresis and transferred to a PVDF membrane. After blocking, the PVDF membrane was incubated with primary antibodies for α-SMA, Integrin-αV, SDC4, Integrin-β1, p-Smad3, FAK, and p-FAK (CST, #19245, #4711, #12236S, #34971, #9520S, #3285S, and #3284S) at 4°C overnight, followed by incubation with secondary antibodies (CST, #7074P2), development with ECL reagent (SAB), and acquisition of images with a chemiluminescence imaging system (ChemiScope 5600).

[2] = system: BLM-induced PF, C57BL/6J mice; assay: BLM-induced PF in mice: HE, Masson, hydroxyproline; assay type: in vivo, mouse
Protocol: C57BL/6J mice (male, 8-to 9-week old, 18–22 g, SPF grade) were purchased from Shanghai Slake Laboratory Animal Co., Ltd. [SCXK (Hu) 2022-0004, Shanghai, China]. […] The mice were housed in an SPF environment with 22–25°C, 46–65% humidity and 12 h/12 h light-dark alternation, with free access to water and food. This animal experiment was approved by the Experimental Animal Welfare Ethics Committee of Fujian Medical University (No. FJMU IACUC 2021-0465), and was carried out in accordance with the National Research Council's Guide for the Care and Use of Laboratory Animals.
as §1
Based on the dosage of SDC2 fragment peptide and our experimental results (Supplementary Figure S10A and B), the dosage schedule of SDC4_87-131 was set as follows: starting on the third day after BLM inhalation, 1 mg/kg, administered via trachea infusion once every three days. And Anti-SDC4(93-121) 8 mg/kg was administered on the third and tenth days (reference dosage).
Lung tissue samples were paraffin-embedded, then sliced and dewaxed, and HE and Masson staining were performed respectively. After dehydration and sealing, images were collected and analyzed using a microscope.
100 mg of lung tissue was accurately weighed and processed according to the instructions of the hydroxyproline assay kit (Nanjing Jiancheng, Nanjing, China), and the absorbance was measured at a wavelength of 550 nm. The data were expressed as micrograms (µg) of hydroxyproline per mg of dry lung tissue.

integrin-β1 = assay: Flow cytometry of integrin-β1 activation (9EG7) in fibroblast; assay type: cell-based, mouse; settings: SDC4_87-131 100 nM, C8 20 nM, 48 h
Protocol: as §2
The single cell suspension of mouse lung tissue was obtained by grinding. After the remaining red blood cells were lysed with ACK Lysis Buffer (TBD, NH4CL2009), 1×10^6 cells/100 μL of cells were added with Fixable Viability Stain 780 (BD, #565388). After incubation at room temperature in the dark for 10-15 min, the suspension was washed twice with PBS containing 1%-2% FBS. The FCR antibody TruStain FcX™ PLUS (BD, #156603) was added to the cell suspension at a ratio of 0.25 μL:100 μL and blocked on ice for 10 min. Then, the antibody was incubated at an appropriate concentration and time according to the manufacturer's instructions. Antibodies include CD45 (Biolegend, #157619), CD140a (Thermo Fisher, #25-1401-82), SDC-4 (Sino Biological, #50726-R112-P), SP-C (Bioss, #bs-10067R-FITC) and Integrin-β1 (9Eg7, BD, 553715), and AF647 anti-Rat (CST, #4418S) was used as the secondary antibody. After incubation, cells were washed and resuspended, and detected using LSRFortessaX-20 (BD).

[3] = system: integrin-αvβ1, FAK/AKT, Smad2/3 and PKCα/NF-κB in BLM lung tissue; assay: BLM-induced PF in mice: Western blot of lung tissue; assay type: in vivo, mouse; settings: n=3
Protocol: as §1, §3

cell migration = settings: ref [39]; cited from earlier work
Source text: SDC4_87-131 is a synthetic peptide of the N87-M131 segment of the extracellular domain of SDC4 (Supplementary Figure S9A). […] Comparing the effects of ... || Syndecans and integrins collaboratively regulate FA formation and cell adhesion. PKCα is known to modulate integrin-mediated FAK phosphorylation and FA assembly. Inhibition of PKCα not only blocks NF-κB activation but also reduces FAK phosphorylation. Conversely, FAK activation can induce NF-κB activity, highlighting a bidirectional crosstalk between the SDC4/PKCα/NF-κB and integrin/FAK pathways.

Substance: Ac-NHIPERAGSGSQVPTEPKKLEENEVIPKRISPVEESEDVSNKVSM-NH2 [SDC4_87-131]
- BLM lung injury, subacute stage (BLM lung injury, mice): can alleviate BLM lung injury in the subacute stage; also recorded: effective
- expression of integrin-β1 ([1]; in vitro vs in vivo PF model): only reduced in the in vitro PF model
- expression level of integrin-αv ([1]; in vitro, 100 nM, 48 h): significantly reduced the expression level of integrin-αv
- FAK/AKT phosphorylation ([1]; in vitro, 100 nM): inhibit FAK/AKT phosphorylation activation in both in vitro and in vivo experiments
- phosphorylation level of PKCα and nuclear content of NF-κB (p65) ([1]; in vitro, SDC4_87-131 100 nM, C8 20 nM, Anti-SDC4(93-121) 100 ng/mL): could downregulate
- alveolar structural disorders and collagen deposition ([2]; SDC4_87-131 1 mg/kg ITD q3d, C8 10 mg/kg IP qd, Anti-SDC4(93-121) 8 mg/kg ITD day 3 and 10, to day 21): could alleviate alveolar structural disorders and collagen deposition
- difference between treatments (HE, Masson, hydroxyproline) ([2]; SDC4_87-131, Anti-SDC4(93-121) and C8 compared): no significant difference
- dECM-PF-induced integrin-β1 activation (integrin-β1): significantly inhibited dECM-PF-induced integrin-β1 activation
- expression level of integrin-αv ([3]; 1 mg/kg ITD q3d): significantly reduced the expression level of integrin-αv
- phosphorylation level of PKCα and nuclear content of NF-κB (p65) ([3]; SDC4_87-131 1 mg/kg, C8 10 mg/kg, Anti-SDC4(93-121) 8 mg/kg): could downregulate
- FAK/AKT phosphorylation [3]: inhibit FAK/AKT phosphorylation activation in both in vitro and in vivo experiments
- p-Smad2/3 effect vs C8 and Anti-SDC4 [3]: not significantly different from C8 and Anti-SDC4
- p-Smad2/3 protein levels [3]: reduced p-Smad2/3 protein levels
- cell adhesion and migration (cell migration): reduces cell adhesion and migration
- cell migration (cell migration): can inhibit cell migration comparably to the exogenous full-length SDC4
